Source: patent US20250205373A1, “ENRICHED AND STABLE RADIOLIGAND THERAPY FORMULATIONS AND PHARMACEUTICAL COMPOSITIONS COMPRISING SAME” (Mariana Oncology Inc., priority 2023, published 2025)
Numbered stars: 1 amine (or outer) side, 2 acyl side, 3 side chain; on linkers, the order of the positions; unused ones are H or OH. Bridge positions count the residues as written; N and C are the ends. Square brackets hold non-standard residues; d marks the D form. Side chains are listed from the residue outwards. Peptide text beside a SMILES is read from it. * marks the point of attachment. Ala(1-CH2CO2H-4-piperidyl) = N[C@@H](CC1CCN(CC(=O)O)CC1)C(=O)O; Ala(piperidin-4-yl) = O=C([C@H](CC1CCN([*:3])CC1)N[*:1])[*:2]; X1 = CC(C)[C@H](N[*:1])C(=O)C[C@@H](Cc1ccc(O)cc1)C(=O)[*:2]; DOTA = O=C(O)CN1CCN(CC(=O)O)CCN(CC(=O)*)CCN(CC(=O)O)CC1; Trp(5-F) = N[C@@H](Cc1c[nH]c2ccc(F)cc12)C(=O)O; X2 = C[C@@H](c1ccccc1)[C@H](N[*:1])C(=O)[*:2]; Val(3-OH) = CC(C)(O)[C@H](N)C(=O)O; PEG4 = NCCOCCOCCOCCOCCC(=O)O; Tle = CC(C)(C)[C@H](N)C(=O)O; hLeu = CC(C)CC[C@H](N)C(=O)O

Biological target: T1, B7-H3 (41 g) (Homo sapiens, UniProt Q5ZPR3)
T1 sequence (Q5ZPR3 29-534): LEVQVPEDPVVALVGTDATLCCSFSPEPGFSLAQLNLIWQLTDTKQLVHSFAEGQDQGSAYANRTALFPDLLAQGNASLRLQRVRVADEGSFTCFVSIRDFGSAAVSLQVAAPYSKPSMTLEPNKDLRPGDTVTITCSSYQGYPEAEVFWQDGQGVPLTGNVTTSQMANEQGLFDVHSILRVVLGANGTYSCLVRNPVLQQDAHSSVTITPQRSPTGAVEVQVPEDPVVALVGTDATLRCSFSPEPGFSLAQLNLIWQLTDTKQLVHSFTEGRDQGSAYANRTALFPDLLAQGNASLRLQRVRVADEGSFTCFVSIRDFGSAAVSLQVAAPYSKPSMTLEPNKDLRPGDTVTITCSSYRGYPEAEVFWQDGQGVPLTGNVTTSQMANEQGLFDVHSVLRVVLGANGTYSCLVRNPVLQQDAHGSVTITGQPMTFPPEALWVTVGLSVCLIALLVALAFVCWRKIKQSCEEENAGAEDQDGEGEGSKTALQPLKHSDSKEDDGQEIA
Test: Binding of Compound 496 to B7-H3

`CC(=O)N[C@@H](CCC(C)C)C(=O)N[C@@H](Cc1ccc(O)cc1)C(=O)N[C@H]1CSSC[C@@H](C(=O)N[C@@H](Cc2c[nH]c3ccc(F)cc23)C(=O)N[C@H](C(=O)N[C@H](C(=O)N[C@H](CCC(=O)O)C(N)=O)C(C)(C)O)[C@@H](C)c2ccccc2)NC(=O)[C@H](Cc2ccc(O)cc2)CC(=O)[C@H](C(C)C)NC(=O)[C@H](CC(=O)O)NC(=O)[C@H](CC2CCN(C(=O)CCOCCOCCOCCOCCNC(=O)CN3CCN(CC(=O)O)CCN(CC(=O)O)CCN(CC(=O)O)CC3)CC2)NC(=O)[C@H](CC2CCN(CC(=O)O)CC2)NC(=O)CNC(=O)[C@H](C(C)(C)C)NC1=O` [Compound 496] (Ac-[hLeu]YC[Tle]G[Ala(1-CH2CO2H-4-piperidyl)][Ala(piperidin-4-yl)]([PEG4-DOTA])D[X1]C[Trp(5-F)][X2][Val(3-OH)][dE]-NH2; disulfide 3-10) was tested, and the “selectivity over the 21 g isoform” value (B7-H3 (41 g) vs 21 g isoform) was “selectivity over the 21 g isoform” and the binding affinity (B7-H3 (41 g), the predominant form expressed by tumor cells) was “high affinity”.
